Data: US20200338156A1, “C[…] (CYCLO-HIS PRO) FOR PREVENTING, IMPROVING OR TREATING OF BONE LOSS RELATED DISEASE” (NovMetaPharma Co., Ltd., priority 2017, published 2020)
Entries after “also recorded” stand apart in the source; their conditions may differ.

Assays:
[1] = system: ovariectomized animal model; experiment: Osteoporosis alleviation effect in ovariectomized animal model, micro CT of femur; assay type: in vivo, SD female mice
Procedure: To determine the effect of alleviating osteoporosis in an ovariectomized animal model according to administration of CHP, a zinc salt, or a mixture thereof, 20-week-old SD female mice (SLC/Central Experimental Animal Co. Ltd., Seoul, Korea) were purchased and raised under certain conditions (temperature: 22±2° C., relative humidity: 55±10%, light/dark cycle: 12 hours). 7 mice/group were allowed to freely drink water and eat food in a cage, subjected to an adaptation period of 1 week before the experiment, and used in the experiment.
After 6 weeks of the administration of CHP, a zinc salt, or a mixture thereof, the effect of alleviating osteoporosis in an ovariectomized animal model was analyzed using Micro CT. The bone mineral density of ovariectomized animals was measured by bone CT scanning of the 3 mm range at the front side of a 2 mm femoral growth plate using micro-CT (QuantumFX, Perkin Elmer, Massachusetts, USA). In addition, a bone volume fraction (BV/TV, %) was measured. The measurement results of the bone mineral density of the femur are illustrated in FIG. 1, and the bone volume fraction is illustrated in FIG. 2.

[2] = system: MC3T3-E1 cells; experiment: Osteogenic differentiation of MC3T3-E1 osteoblasts, alkaline phosphatase (ALP) activity; assay type: cell-based
Procedure: MC3T3-E1 cells were incubated in MEMα, an ascorbic acid-free medium containing 10% FBS and 1% penicillin/streptomycin, in a 5% CO2 incubator at 37° C. To induce osteogenic differentiation, 10 mM β-glycerophosphate and […] of ascorbic acid was further added to the basal medium composition.
500 μl of 1×10^5 MC3T3-E1 cells were seeded into a 24-well plate and cultured for 24 hours until they reached 100% confluency. […] At this time, in the undifferentiated group, which is a negative control for differentiation, a basal medium was used instead of the differentiation medium. In the positive control treated with hPTH1-34, the medium was replaced with a differentiation medium 6 hours after the treatment. While the medium was replaced every 48 hours, each concentration of CHP and hPTH1-34 was treated for a total of 14 days.
On day 14 of differentiation, the medium was removed, followed by washing once with PBS and fixing in 4% paraformaldehyde (PFA) at room temperature for 5 minutes. 500 μl of a 1-STEP™ NBCT/BCIP solution was added to allow a reaction to occur at room temperature for 1 hour. The reaction product was washed with distilled water, and then dried at room temperature, and the degree of coloring of the cells was observed using a microscope. Subsequently, DMSO was added to each well, followed by shaking, and then absorbance at 525 nm was measured.

Which “bone mineral density of a femur” value ([1]; CHP alone administered to ovariectomized animal model, dose not stated (FIG. 1)) does the source give for `O=C1N[C@@H](Cc2cnc[nH]2)C(=O)N2CCC[C@@H]12` [CHP, cyclo-hispro] here?
Its value is “significantly increased”.

What about the “bone volume fraction of a femur” value ([1]; CHP alone administered to ovariectomized animal model, dose not stated (FIG. 2)) of the same compound?
Its value is “significantly increased”.

And the “bone volume fraction (BV/TV)” value ([1]; group administered 1 mg/L of CHP in drinking water, 6 weeks, micro-CT)?
Its value is “restored to a level similar to that of the positive control (risedronate)”.

And the “bone mineral density of the femur” value ([1]; group administered 1 mg/L of CHP in drinking water, 6 weeks, micro-CT, compared to the ovariectomized group)?
Its value is “significant increase”.

And the “effect on bone mineral density and bone volume fraction versus zinc salt-administered group and combined (zinc salt + CHP) administration group” value ([1]; ovariectomized animal model, CHP alone)?
Its value is “significantly stronger”.

And the “osteogenic differentiation, degree of coloring (ALP staining, FIG. 3)” value ([2]; MC3T3-E1, 0.5, 1 or 2 mM CHP, day 14 of differentiation, compared to negative control)?
The value was “remarkably increased degree of coloring compared to the negative control; also recorded: as the concentration of CHP treated was increased, osteogenic differentiation and bone modeling were promoted”.

What about the “ALP activity (absorbance at 525 nm, FIG. 4)” value ([2]; MC3T3-E1, CHP 2 mM, day 14, compared to positive control hPTH1-34 10 nM) of the same compound?
Its value is “level similar to that of the positive control; also recorded: same or similar to that of a positive control”.
